In US9738634B2, “Heterocyclic amide compound and herbicide” (SYNGENTA PARTICIPATIONS AG, priority 2013, dated 2017):

Columns and labels:
Type in all cases: in vivo
black-grass [1] = test: Test Example 3: weedkilling efficacy through soil treatment; H: black-grass; conditions: treatment dosage 1250 g/ha
Method in brief: (§1)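 Crop and weed responses were judged three weeks after a uniform surface spray of the water-diluted emulsion at the given g/ha rate. Seeds sat beneath about 1.5 cm of sterilized diluvial soil, and boxes stood in a greenhouse at 25 to 30° C.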

crabgrass [2] = test: Test Example 3: weedkilling efficacy through soil treatment; D: crabgrass; conditions: treatment dosage 1250 g/ha
Method in brief: as §1

corn [3] = test: Test Example 4: foliar treatment, effect on crop; c: corn; conditions: treatment dosage 1250 g/ha
Method in brief: (§2)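 Seeds are spot-sown into sterilized diluvial soil and covered with about 1.5 cm of soil. After 14 days' greenhouse growth at 25 to 30° C, plants are sprayed on stems and leaves with diluted emulsion at the stated g/ha rate, then scored at 3 weeks.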

directly sown rice [4] = test: Test Example 4: foliar treatment, effect on crop; b: directly sown rice; conditions: treatment dosage 1250 g/ha
Method in brief: as §2

corn [5] = test: Test Example 3: soil treatment, effect on crop; c: corn; conditions: treatment dosage 1250 g/ha
Method in brief: as §1

wheat [6] = test: Test Example 3: soil treatment, effect on crop; e: wheat; conditions: treatment dosage 1250 g/ha
Method in brief: as §1

crabgrass [7] = test: Test Example 4: weedkilling efficacy by foliar treatment; D: crabgrass; conditions: treatment dosage 1250 g/ha
Method in brief: as §2

barnyard grass [8] = test: Test Example 2: weedkilling efficacy, growth period weed treatment in the submerged state; A: barnyard grass; conditions: treatment dosage 1000 g/ha
Method in brief: (§3)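 Barnyard grass, bulrush and oval-leafed pondweed sown in alluvial soil under 4 cm flooding, greenhouse 25 to 30° C. At 1-2 leaf stage, water-diluted emulsion applied to the water surface at stated g/ha dosages; effects scored 3 weeks later.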

wild oat [9] = test: Test Example 4: weedkilling efficacy by foliar treatment; G: wild oat; conditions: treatment dosage 1250 g/ha
Method in brief: as §2

birds-eye speedwell [10] = test: Test Example 4: weedkilling efficacy by foliar treatment; p: birds-eye speedwell; conditions: treatment dosage 1250 g/ha
Method in brief: as §2

green foxtail [11] = test: Test Example 4: weedkilling efficacy by foliar treatment; E: green foxtail; conditions: treatment dosage 1250 g/ha
Method in brief: as §2

beet [12] = test: Test Example 3: soil treatment, effect on crop; f: beet; conditions: treatment dosage 1250 g/ha
Method in brief: as §1

Italian ryegrass [13] = test: Test Example 4: weedkilling efficacy by foliar treatment; I: Italian ryegrass; conditions: treatment dosage 1250 g/ha
Method in brief: as §2

Italian ryegrass [14] = test: Test Example 3: weedkilling efficacy through soil treatment; I: Italian ryegrass; conditions: treatment dosage 1250 g/ha
Method in brief: as §1

soybean [15] = test: Test Example 3: soil treatment, effect on crop; d: soybean; conditions: treatment dosage 1250 g/ha
Method in brief: as §1

redroot pigweed [16] = test: Test Example 3: weedkilling efficacy through soil treatment; L: redroot pigweed; conditions: treatment dosage 1250 g/ha
Method in brief: as §1

soybean [17] = test: Test Example 4: foliar treatment, effect on crop; d: soybean; conditions: treatment dosage 1250 g/ha
Method in brief: as §2

oval-leafed pondweed [18] = test: Test Example 1: weedkilling efficacy, preemergent weed treatment in the submerged state; C: oval-leafed pondweed; conditions: treatment dosage 1000 g/ha
Method in brief: (§4)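 Pots of alluvial soil flooded 4 cm deep, sown with barnyard grass, bulrush and oval-leafed pondweed and transplanted with 2.5-leaf rice. Emulsified compound applied to the water surface on sowing day at stated g/ha; greenhouse 25–30 °C, effects assessed 3 weeks after treatment.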

birds-eye speedwell [19] = test: Test Example 3: weedkilling efficacy through soil treatment; p: birds-eye speedwell; conditions: treatment dosage 1250 g/ha
Method in brief: as §1

catchweed [20] = test: Test Example 3: weedkilling efficacy through soil treatment; O: catchweed; conditions: treatment dosage 1250 g/ha
Method in brief: as §1

wheat [21] = test: Test Example 4: foliar treatment, effect on crop; e: wheat; conditions: treatment dosage 1250 g/ha
Method in brief: as §2

green foxtail [22] = test: Test Example 3: weedkilling efficacy through soil treatment; E: green foxtail; conditions: treatment dosage 1250 g/ha
Method in brief: as §1

Indian mallow [23] = test: Test Example 3: weedkilling efficacy through soil treatment; K: Indian mallow; conditions: treatment dosage 1250 g/ha
Method in brief: as §1

black-grass [24] = test: Test Example 4: weedkilling efficacy by foliar treatment; H: black-grass; conditions: treatment dosage 1250 g/ha
Method in brief: as §2

catchweed [25] = test: Test Example 4: weedkilling efficacy by foliar treatment; O: catchweed; conditions: treatment dosage 1250 g/ha
Method in brief: as §2

fig-leafed goosefoot [26] = test: Test Example 3: weedkilling efficacy through soil treatment; M: fig-leafed goosefoot; conditions: treatment dosage 1250 g/ha
Method in brief: as §1

barnyard grass [27] = test: Test Example 1: weedkilling efficacy, preemergent weed treatment in the submerged state; A: barnyard grass; conditions: treatment dosage 1000 g/ha
Method in brief: as §4

bulrush [28] = test: Test Example 1: weedkilling efficacy, preemergent weed treatment in the submerged state; B: bulrush; conditions: treatment dosage 1000 g/ha
Method in brief: as §4

fig-leafed goosefoot [29] = test: Test Example 4: weedkilling efficacy by foliar treatment; M: fig-leafed goosefoot; conditions: treatment dosage 1250 g/ha
Method in brief: as §2

wild oat [30] = test: Test Example 3: weedkilling efficacy through soil treatment; G: wild oat; conditions: treatment dosage 1250 g/ha
Method in brief: as §1

oval-leafed pondweed [31] = test: Test Example 2: weedkilling efficacy, growth period weed treatment in the submerged state; C: oval-leafed pondweed; conditions: treatment dosage 1000 g/ha
Method in brief: as §3

directly sown rice [32] = test: Test Example 3: soil treatment, effect on crop; b: directly sown rice; conditions: treatment dosage 1250 g/ha
Method in brief: as §1

Indian mallow [33] = test: Test Example 4: weedkilling efficacy by foliar treatment; K: Indian mallow; conditions: treatment dosage 1250 g/ha
Method in brief: as §2

chickweed [34] = test: Test Example 4: weedkilling efficacy by foliar treatment; N: chickweed; conditions: treatment dosage 1250 g/ha
Method in brief: as §2

transplanted rice = test: Test Example 1: preemergent weed treatment in the submerged state, effect on crop; a: transplanted rice; conditions: treatment dosage 1000 g/ha
Method in brief: as §4

beet [35] = test: Test Example 4: foliar treatment, effect on crop; f: beet; conditions: treatment dosage 1250 g/ha
Method in brief: as §2

redroot pigweed [36] = test: Test Example 4: weedkilling efficacy by foliar treatment; L: redroot pigweed; conditions: treatment dosage 1250 g/ha
Method in brief: as §2

chickweed [37] = test: Test Example 3: weedkilling efficacy through soil treatment; N: chickweed; conditions: treatment dosage 1250 g/ha
Method in brief: as §1

bulrush [38] = test: Test Example 2: weedkilling efficacy, growth period weed treatment in the submerged state; B: bulrush; conditions: treatment dosage 1000 g/ha
Method in brief: as §3

**Q.** With `CC1=C(c2cccnc2Cl)C(=O)N(C(C)(C)C(=O)Nc2cccc(F)n2)CO1` [B-2-19] as the molecule, how does the “H (black-grass) weedkilling efficacy grade” value (black-grass [1]) read?
**A.** 5 (weed kill ratio 90% or more, (practically complete withering))

**Q.** And the “D (crabgrass) weedkilling efficacy grade” value (crabgrass [2])?
**A.** 5 (weed kill ratio 90% or more, (practically complete withering))

**Q.** What about the “c (corn) effect on crop grade” value (corn [3]) of the same molecule?
**A.** 1 (weed kill ratio 5% or more, less than 20%)

**Q.** What about the “b (directly sown rice) effect on crop grade” value (directly sown rice [4]) of the same molecule?
**A.** 4 (weed kill ratio 70% or more, less than 90%)

**Q.** What about the “c (corn) effect on crop grade” value (corn [5]) of the same molecule?
**A.** 0 (weed kill ratio 5% or less (practically no effect))

**Q.** What about the “e (wheat) effect on crop grade” value (wheat [6]) of the same molecule?
**A.** 0 (weed kill ratio 5% or less (practically no effect))

**Q.** What about the “D (crabgrass) weedkilling efficacy grade” value (crabgrass [7]) of the same molecule?
**A.** 5 (weed kill ratio 90% or more, (practically complete withering))

**Q.** And the “A (barnyard grass) weedkilling efficacy grade” value (barnyard grass [8])?
**A.** 2 (weed kill ratio 20% or more, less than 40%)

**Q.** And the “G (wild oat) weedkilling efficacy grade” value (wild oat [9])?
**A.** 3 (weed kill ratio 40% or more, less than 70%)

**Q.** What about the “P (birds-eye speedwell) weedkilling efficacy grade” value (birds-eye speedwell [10]) of the same molecule?
**A.** 5 (weed kill ratio 90% or more, (practically complete withering))

**Q.** What about the “E (green foxtail) weedkilling efficacy grade” value (green foxtail [11]) of the same molecule?
**A.** 5 (weed kill ratio 90% or more, (practically complete withering))

**Q.** What about the “f (beet) effect on crop grade” value (beet [12]) of the same molecule?
**A.** 4 (weed kill ratio 70% or more, less than 90%)

**Q.** What about the “I (Italian ryegrass) weedkilling efficacy grade” value (Italian ryegrass [13]) of the same molecule?
**A.** 4 (weed kill ratio 70% or more, less than 90%)

**Q.** And the “I (Italian ryegrass) weedkilling efficacy grade” value (Italian ryegrass [14])?
**A.** 5 (weed kill ratio 90% or more, (practically complete withering))

**Q.** What about the “d (soybean) effect on crop grade” value (soybean [15]) of the same molecule?
**A.** 0 (weed kill ratio 5% or less (practically no effect))

**Q.** What about the “L (redroot pigweed) weedkilling efficacy grade” value (redroot pigweed [16]) of the same molecule?
**A.** 4 (weed kill ratio 70% or more, less than 90%)

**Q.** What about the “d (soybean) effect on crop grade” value (soybean [17]) of the same molecule?
**A.** 1 (weed kill ratio 5% or more, less than 20%)

**Q.** And the “C (oval-leafed pondweed) weedkilling efficacy grade” value (oval-leafed pondweed [18])?
**A.** 4 (weed kill ratio 70% or more, less than 90%)

**Q.** What about the “P (birds-eye speedwell) weedkilling efficacy grade” value (birds-eye speedwell [19]) of the same molecule?
**A.** 4 (weed kill ratio 70% or more, less than 90%)

**Q.** And the “O (catchweed) weedkilling efficacy grade” value (catchweed [20])?
**A.** 0 (weed kill ratio 5% or less (practically no effect))

**Q.** And the “e (wheat) effect on crop grade” value (wheat [21])?
**A.** 0 (weed kill ratio 5% or less (practically no effect))

**Q.** And the “E (green foxtail) weedkilling efficacy grade” value (green foxtail [22])?
**A.** 5 (weed kill ratio 90% or more, (practically complete withering))

**Q.** And the “K (Indian mallow) weedkilling efficacy grade” value (Indian mallow [23])?
**A.** 0 (weed kill ratio 5% or less (practically no effect))

**Q.** And the “H (black-grass) weedkilling efficacy grade” value (black-grass [24])?
**A.** 5 (weed kill ratio 90% or more, (practically complete withering))

**Q.** And the “O (catchweed) weedkilling efficacy grade” value (catchweed [25])?
**A.** 3 (weed kill ratio 40% or more, less than 70%)

**Q.** And the “M (fig-leafed goosefoot) weedkilling efficacy grade” value (fig-leafed goosefoot [26])?
**A.** 5 (weed kill ratio 90% or more, (practically complete withering))

**Q.** And the “A (barnyard grass) weedkilling efficacy grade” value (barnyard grass [27])?
**A.** 5 (weed kill ratio 90% or more, (practically complete withering))

**Q.** What about the “B (bulrush) weedkilling efficacy grade” value (bulrush [28]) of the same molecule?
**A.** 5 (weed kill ratio 90% or more, (practically complete withering))

**Q.** And the “M (fig-leafed goosefoot) weedkilling efficacy grade” value (fig-leafed goosefoot [29])?
**A.** 3 (weed kill ratio 40% or more, less than 70%)

**Q.** What about the “G (wild oat) weedkilling efficacy grade” value (wild oat [30]) of the same molecule?
**A.** 5 (weed kill ratio 90% or more, (practically complete withering))

**Q.** What about the “C (oval-leafed pondweed) weedkilling efficacy grade” value (oval-leafed pondweed [31]) of the same molecule?
**A.** 3 (weed kill ratio 40% or more, less than 70%)

**Q.** What about the “b (directly sown rice) effect on crop grade” value (directly sown rice [32]) of the same molecule?
**A.** 4 (weed kill ratio 70% or more, less than 90%)

**Q.** And the “K (Indian mallow) weedkilling efficacy grade” value (Indian mallow [33])?
**A.** 0 (weed kill ratio 5% or less (practically no effect))

**Q.** And the “N (chickweed) weedkilling efficacy grade” value (chickweed [34])?
**A.** 3 (weed kill ratio 40% or more, less than 70%)

**Q.** What about the “a (transplanted rice) effect on crop grade” value (transplanted rice) of the same molecule?
**A.** 0 (weed kill ratio 5% or less (practically no effect))

**Q.** What about the “f (beet) effect on crop grade” value (beet [35]) of the same molecule?
**A.** 3 (weed kill ratio 40% or more, less than 70%)

**Q.** What about the “L (redroot pigweed) weedkilling efficacy grade” value (redroot pigweed [36]) of the same molecule?
**A.** 3 (weed kill ratio 40% or more, less than 70%)

**Q.** What about the “N (chickweed) weedkilling efficacy grade” value (chickweed [37]) of the same molecule?
**A.** 4 (weed kill ratio 70% or more, less than 90%)

**Q.** And the “B (bulrush) weedkilling efficacy grade” value (bulrush [38])?
**A.** 5 (weed kill ratio 90% or more, (practically complete withering))
